Entries after “also recorded” stand apart in the source; their conditions may differ.
System: VEGFA-induced dermal neovascularization
Assay: Matrigel plug implantation assay (VEGFA-induced angiogenesis and lymphatic vessel enlargement)
Assay type: in vivo, mouse
Conditions: mice, 3 mg/kg/day orally, 6 days
Procedure: The mouse studies were conducted under protocols approved by the Veterinary Office of the Canton of Zurich, Switzerland (permit #123/2005). Nine week-old female wild-type FVB mice (Charles River) were used for the experiments (n=6 per group). Prior to Matrigel implantation, the mice were anesthetized by intraperitoneal injection of 200 μl of Dormitor (20 μg/ml medetomidine; Pfizer) and Narketan 10 (8 mg/ml ketamine; Vétoquinol). The left hip of the animals were shaved and subsequently Matrigel was implanted by intradermal injection of 100 μl of unpolymerized growth factor-reduced Matrigel (BD Biosciences) containing 0.5 mg/ml recombinant human VEGFA (#0081109; National Cancer Institute, USA). The mice were treated orally with either 200 μl PEG-400 (Fluka; pH adjusted to 5.2; control group) or with 200 μl PEG-400 containing […] naphthyridine (3 mg/kg/day). Another control group of mice received Matrigel without VEGFA and was treated with 200 μl PEG-400. The treatment was given once daily for six days. Weight and appearance of animals was monitored daily. On the 7th day, the Matrigel implants were removed from the euthanized mice for immunocytochemical examination. The Matrigel implants were frozen in Tissue-Tek O.C.T. compound (Sakura Finetek), sectioned, and processed as described previously (Kajiya et al., 2005). In brief, 6-μm frozen sections were fixed in −20° C. acetone for two minutes and in cold 80% methanol for five minutes, followed by incubation with antibodies against the lymphatic-specific marker LYVE1 (1:1,000; Millipore) and against the pan-endothelial marker […] (anti-mouse; 1:50; BD Biosciences). Corresponding secondary antibodies were labeled with Alexa 488 or Alexa 594 (Invitrogen). Nuclei were counterstained with 20 μg/ml Hoechst 33342 (Invitrogen). Sections were examined under an Axioskop 2 mot plus microscope and digital images were taken using an AxioCam MRc camera (Carl Zeiss). Three pictures each were taken of vascularized areas around the Matrigel implants (maximal distance from the implant: 500 μm). The vessel density, average vessel size and the average tissue area occupied by vessels were determined in CD31/LYVE1 stained sections using the IPLab software (BD Biosciences) as described (Kajiya et al., 2005).
The adenosine A1 receptor antagonist naphthyridine was identified as a novel inhibitor of lymphatic and blood vessel formation in Xenopus tadpoles and in vitro cellular assays, where it acted anti-mitogenic and impaired endothelial tube formation. […] It can be concluded that the ability of naphthyridine to inhibit lymph and blood vessel angiogenesis is conserved between Xenopus and mammals.

Oc1cc(-c2ccccc2)nc2nc(Cl)ccc12 [7-Chloro-4-hydroxy-2-phenyl-1,8-naphthyridine]
density of lymphatic vessels: unchanged | number of VEGFA-induced blood vessels: 36.49±1.49 | tissue area covered by lymphatic vessels surrounding VEGFA containing Matrigels: 0.89±0.18% | lymphatic vessel enlargement (3 mg/kg/day): potently inhibited; also recorded: reduction | tissue area covered by blood vessels (3 mg/kg/day): reduction; also recorded: reduced
